According to patent publication US12310975B2, “Modulators of BCL6 proteolysis and associated methods of use” (Arvinas Operations, Inc., priority 2019, dated 2025):

Molecular target: T1, BCL6 (Homo sapiens (Human), UniProt P41182)
Assay: Immunofluorescence high content imaging of BCL6 degradation in T47D cells
Format: cell-based
Settings: T47D
Outline: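 T47D, 3 d compound exposure, 11-pt 3-fold series, top 0.1 or 1 μM final. Fix 4% PFA, Triton permeabilize, anti-BCL6 primary overnight 4 °C, Alexa-488 secondary. High-content imaging 10×, 4 fields/well, top-hat smoothing.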

Dmax [%]	Compound
50 to 70	CNC(=O)COc1cc2cc(Nc3nc(N4CCC(OC5CC6(CCN(c7cccc(C(=O)NC8CCC(=O)NC8=O)c7OC)CC6)C5)CC4)ncc3Cl)ccc2n(C(C)C)c1=O (stereo not drawn) [compound 449, 3-[2-({1-[5-chloro-4-({3-[(methylcarbamoyl)methoxy]-2-oxo-1-(propan-2-yl)-1,2-dihydroquinolin-6-yl}amino)pyrimidin-2-yl]piperidin-4-yl}oxy)-7-azaspiro[3.5]nonan-7-yl]-N-(2,6-dioxopiperidin-3-yl)-2-methoxybenzamide]
≥ 70	CNC(=O)COc1cc2cc(Nc3nc(N4CCN(C(C)(C)C5CCN(c6ccc(OC)c(C(=O)NC7CCC(=O)NC7=O)c6F)CC5)CC4)ncc3Cl)ccc2n(C)c1=O (stereo not drawn) [compound 468, 3-[4-(2-{4-[5-chloro-4-({1-methyl-3-[(methylcarbamoyl)methoxy]-2-oxo-1,2-dihydroquinolin-6-yl}amino)pyrimidin-2-yl]piperazin-1-yl}propan-2-yl)piperidin-1-yl]-N-(2,6-dioxopiperidin-3-yl)-2-fluoro-6-methoxybenzamide]
50 to 70	CNC(=O)COc1cc2cc(Nc3nc(N4CCC(C5(N6CCC(c7ccc8c(c7)C(=O)N(C7CCC(=O)NC7=O)C8=O)CC6)CC5)CC4)ncc3Cl)ccc2n(C)c1=O (stereo not drawn) [compound 482, 2-{[6-({5-chloro-2-[4-(1-{4-[2-(2,6-dioxopiperidin-3-yl)-1,3-dioxo-2,3-dihydro-1H-isoindol-5-yl]piperidin-1-yl}cyclopropyl)piperidin-1-yl]pyrimidin-4-yl}amino)-1-methyl-2-oxo-1,2-dihydroquinolin-3-yl]oxy}-N-methylacetamide]

Same assay, conditions: T47D cells

Dmax [%]	IC50 [nM]	Compound
50 to 70	< 10	CNC(=O)COc1cc2cc(Nc3nc(N4CCC5(CC4)CN(CC4CCN(c6cccc7c6CN(C6CCC(=O)NC6=O)C7=O)CC4)C5)ncc3Cl)ccc2n(C(C)C)c1=O (stereo not drawn) [compound 443, 2-{[6-({5-chloro-2-[2-({1-[2-(2,6-dioxopiperidin-3-yl)-1-oxo-2,3-dihydro-1H-isoindol-4-yl]piperidin-4-yl}methyl)-2,7-diazaspiro[3.5]nonan-7-yl]pyrimidin-4-yl}amino)-2-oxo-1-(propan-2-yl)-1,2-dihydroquinolin-3-yl]oxy}-N-methylacetamide]

Molecular target: T1, BCL6
Assay: BCL6 TR-FRET assay (BCL6-Avitag-Biotin / BCoR-Cy5 peptide)
Format: binding
Settings: not given
Procedure: Protein Synthesis. BCL6 protein was expressed by transforming Invitrogen One Shot cells with GS63525 pET24a-His-SUMO-TEV-BCLm-Avitag plasmid following manufacturer's instructions. In addition, biotin at a final concentration of 50 μM, and IPTG at a final concentration of 1 mM was added to the culture and incubated at room temperature shaking overnight.
Assay buffer A: 50 mM HEPES pH 7.5, 125 mM NaCl, 0.01% TritonX.
Assay buffer B (made fresh): buffer A+1 mM Glutathione (or 0.5 mM DTT).
Assay buffer C (made fresh): buffer B+0.03% BSA.
Black Proxy plates, 96 well.
15 μl final reaction volumes (BCoR-Cy5 100 nM, SA-Eu 2 nM, BCL6-avitag 2 nM).
[…] BCL6-Avitag-Biotin stock: made fresh by adding 2 μl of BCL6-Avitag-Biotin to 31.5 ml Buffer C.
1 mM BCoR-Cy5 peptide (LifeTein) stock in Dimethylformamide (DMF).
300 nM BCoR-Cy5 working stock: made fresh by adding 4.5 μl of the 1 mM BCoR-Cy5 peptide stock to 15 ml Buffer B.
10 μM Eu-Streptavidin (Lance Eu-W1024 Streptavidin, PerkinElmer) stock solution.
6 nM Eu-Streptavidin working stock: made fresh by adding 9 μl Eu-Streptavidin stock solution to 15 ml Buffer A.
Compounds were diluted to 10 mM. Twenty microliters of DMSO was aliquoted to each well of the microtiter plates. From the 10 mM compound stock, 8.7 ul was aliquoted to the 20 ul DMSO and 3-fold serial dilutions (12 pt 3-0.01 uM tritration plate, 96 well, 100% DMSO) performed. Five ul from the titration plate wells was aliquoted to 45 ul Buff C (Intermediate dilution plates, 10% DMSO).
Spot 1.5 μl compound titrations to 384-well plates in duplicate, and spot 3.5 μl [8.5 nM] BCL6-bio protein to each well. The plate was mix briefly, centrifuged, and incubated for 30 minutes at room temperature.
Mix 14 mls of BCoR-Cy5 [300 nM] and 14 mls [6 nM] Eu-Streptavidin. Spot 10 μl BCoR-Cy5/SA-Eu (1:1) mix to each well. The plates were incubated for 2 hours and then read on an Envision plate reader.

EC50 [nM]	Compound
> 100	CNC(=O)COc1cc2cc(Nc3nc(N4CCC[C@H](COc5cccc6c5C(=O)N(C5CCC(=O)NC5=O)C6=O)C4)ncc3Cl)ccc2n(C)c1=O (stereo partly drawn) [compound 192, 2-((6-((5-chloro-2-((3S)-3-(((2-(2,6-dioxopiperidin-3-yl)-1,3-dioxoisoindolin-4-yl)oxy)methyl)piperidin-1-yl)pyrimidin-4-yl)amino)-1-methyl-2-oxo-1,2-dihydroquinolin-3-yl)oxy)-N-methylacetamide]
> 100	Cn1c(=O)c(OC2COC2)cc2cc(Nc3nc(N4CCC(CN5CCN(c6ccc7c(c6)C(=O)N(C6CCC(=O)NC6=O)C7=O)CC5)CC4)ncc3Cl)ccc21 (stereo not drawn) [compound 223, 5-(4-((1-(5-chloro-4-((1-methyl-3-(oxetan-3-yloxy)-2-oxo-1,2-dihydroquinolin-6-yl)amino)pyrimidin-2-yl)piperidin-4-yl)methyl)piperazin-1-yl)-2-(2,6-dioxopiperidin-3-yl)isoindoline-1,3-dione]

Same assay, conditions: read-out: IC50

IC50 [µM]	Compound
≥ 0.1	CNC(=O)COc1cc2cc(Nc3nc(N4CCC(O[C@H]5C[C@@H](COc6ccc7c(c6)C(=O)N(C6CCC(=O)NC6=O)C7=O)N(C)C5)CC4)ncc3Cl)ccc2n(C(C)C)c1=O (stereo partly drawn) [compound 456, 2-[(6-{[5-chloro-2-(4-{[(3S,5S)-5-({[2-(2,6-dioxopiperidin-3-yl)-1,3-dioxo-2,3-dihydro-1H-isoindol-5-yl]oxy}methyl)-1-methylpyrrolidin-3-yl]oxy}piperidin-1-yl)pyrimidin-4-yl]amino}-2-oxo-1-(propan-2-yl)-1,2-dihydroquinolin-3-yl)oxy]-N-methylacetamide]
≥ 0.1	CNC(=O)COc1cc2cc(Nc3nc(N4CCC(O[C@H]5C[C@@H](Oc6ccc7c(c6)C(=O)N(C6CCC(=O)NC6=O)C7=O)CN(C)C5)CC4)ncc3Cl)ccc2n(C(C)C)c1=O (stereo partly drawn) [compound 457, 2-[(6-{[5-chloro-2-(4-{[(3S,5R)-5-{[2-(2,6-dioxopiperidin-3-yl)-1,3-dioxo-2,3-dihydro-1H-isoindol-5-yl]oxy}-1-methylpiperidin-3-yl]oxy}piperidin-1-yl)pyrimidin-4-yl]amino}-2-oxo-1-(propan-2-yl)-1,2-dihydroquinolin-3-yl)oxy]-N-methylacetamide]
≥ 0.1	CNC(=O)COc1cc2cc(Nc3nc(N4CCC(O[C@H]5C[C@H](Oc6ccc7c(c6)C(=O)N(C6CCC(=O)NC6=O)C7=O)CN(C)C5)CC4)ncc3Cl)ccc2n(C(C)C)c1=O (stereo partly drawn) [compound 459, 2-[(6-{[5-chloro-2-(4-{[(3S,5S)-5-{[2-(2,6-dioxopiperidin-3-yl)-1,3-dioxo-2,3-dihydro-1H-isoindol-5-yl]oxy}-1-methylpiperidin-3-yl]oxy}piperidin-1-yl)pyrimidin-4-yl]amino}-2-oxo-1-(propan-2-yl)-1,2-dihydroquinolin-3-yl)oxy]-N-methylacetamide]
≥ 0.1	CNC(=O)COc1cc2cc(Nc3nc(N4CCC(O[C@@H]5C[C@H](COc6ccc7c(c6)C(=O)N(C6CCC(=O)NC6=O)C7=O)N(C)C5)CC4)ncc3Cl)ccc2n(C(C)C)c1=O (stereo partly drawn) [compound 460, 2-[(6-{[5-chloro-2-(4-{[(3R,5R)-5-({[2-(2,6-dioxopiperidin-3-yl)-1,3-dioxo-2,3-dihydro-1H-isoindol-5-yl]oxy}methyl)-1-methylpyrrolidin-3-yl]oxy}piperidin-1-yl)pyrimidin-4-yl]amino}-2-oxo-1-(propan-2-yl)-1,2-dihydroquinolin-3-yl)oxy]-N-methylacetamide]
≥ 0.1	CNC(=O)COc1cc2cc(Nc3nc(N4CCC(O[C@@H]5C[C@@H](Oc6ccc7c(c6)C(=O)N(C6CCC(=O)NC6=O)C7=O)CN(C)C5)CC4)ncc3Cl)ccc2n(C(C)C)c1=O (stereo partly drawn) [compound 464, 2-[(6-{[5-chloro-2-(4-{[(3R,5R)-5-{[2-(2,6-dioxopiperidin-3-yl)-1,3-dioxo-2,3-dihydro-1H-isoindol-5-yl]oxy}-1-methylpiperidin-3-yl]oxy}piperidin-1-yl)pyrimidin-4-yl]amino}-2-oxo-1-(propan-2-yl)-1,2-dihydroquinolin-3-yl)oxy]-N-methylacetamide]
≥ 0.1	CNC(=O)COc1cc2cc(Nc3nc(N4CCC(O[C@@H]5C[C@@H](COc6cccc7c6C(=O)N(C6CCC(=O)NC6=O)C7=O)N(C)C5)CC4)ncc3Cl)ccc2n(C(C)C)c1=O (stereo partly drawn) [compound 478, 2-[(6-{[5-chloro-2-(4-{[(3R,5S)-5-({[2-(2,6-dioxopiperidin-3-yl)-1,3-dioxo-2,3-dihydro-1H-isoindol-4-yl]oxy}methyl)-1-methylpyrrolidin-3-yl]oxy}piperidin-1-yl)pyrimidin-4-yl]amino}-2-oxo-1-(propan-2-yl)-1,2-dihydroquinolin-3-yl)oxy]-N-methylacetamide]
≥ 0.1	CNC(=O)COc1cc2cc(Nc3nc(N4CCC(O[C@@H]5C[C@@H](Oc6cccc7c6C(=O)N(C6CCC(=O)NC6=O)C7=O)CN(C)C5)CC4)ncc3Cl)ccc2n(C(C)C)c1=O (stereo partly drawn) [compound 479, 2-[(6-{[5-chloro-2-(4-{[(3R,5R)-5-{[2-(2,6-dioxopiperidin-3-yl)-1,3-dioxo-2,3-dihydro-1H-isoindol-4-yl]oxy}-1-methylpiperidin-3-yl]oxy}piperidin-1-yl)pyrimidin-4-yl]amino}-2-oxo-1-(propan-2-yl)-1,2-dihydroquinolin-3-yl)oxy]-N-methylacetamide]
≥ 0.1	CNC(=O)COc1cc2cc(Nc3nc(N4CCC(O[C@@H]5C[C@H](COc6cccc7c6C(=O)N(C6CCC(=O)NC6=O)C7=O)N(C)C5)CC4)ncc3Cl)ccc2n(C(C)C)c1=O (stereo partly drawn) [compound 486, 2-[(6-{[5-chloro-2-(4-{[(3R,5R)-5-({[2-(2,6-dioxopiperidin-3-yl)-1,3-dioxo-2,3-dihydro-1H-isoindol-4-yl]oxy}methyl)-1-methylpyrrolidin-3-yl]oxy}piperidin-1-yl)pyrimidin-4-yl]amino}-2-oxo-1-(propan-2-yl)-1,2-dihydroquinolin-3-yl)oxy]-N-methylacetamide]
